Test results: publication PMC11836120, “A small signaling domain controls PPIP5K phosphatase activity in phosphate homeostasis” (Nature Communications, 2025)

How the values were obtained:
[1] = molecular target: T1, ScVip1 phosphatase domain (ScVip1^PD E991A) (Saccharomyces cerevisiae, UniProt Q06685, E991A); assay: NMR and malachite green phosphatase assays; assay type: biochemical
T1 construct: gene VIP1; residues 536–1107
T1 sequence (Q06685 536-1107 E991A): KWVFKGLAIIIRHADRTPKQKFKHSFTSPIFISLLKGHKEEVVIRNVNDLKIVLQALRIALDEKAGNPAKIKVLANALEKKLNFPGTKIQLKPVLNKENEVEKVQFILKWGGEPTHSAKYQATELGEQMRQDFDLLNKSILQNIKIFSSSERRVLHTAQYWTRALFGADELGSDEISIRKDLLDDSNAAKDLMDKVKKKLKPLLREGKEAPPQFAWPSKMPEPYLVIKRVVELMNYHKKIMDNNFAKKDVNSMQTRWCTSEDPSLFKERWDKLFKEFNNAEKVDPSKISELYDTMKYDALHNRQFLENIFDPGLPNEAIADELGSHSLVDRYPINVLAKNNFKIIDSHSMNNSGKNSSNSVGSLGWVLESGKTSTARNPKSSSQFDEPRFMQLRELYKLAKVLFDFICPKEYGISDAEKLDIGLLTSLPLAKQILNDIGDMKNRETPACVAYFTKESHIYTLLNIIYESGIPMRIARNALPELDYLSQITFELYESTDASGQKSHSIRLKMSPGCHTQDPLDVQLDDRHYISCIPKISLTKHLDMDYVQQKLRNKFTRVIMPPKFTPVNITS

[2] = molecular target: T2, ScVip1 kinase domain (ScVip1^KD) (Saccharomyces cerevisiae, UniProt Q06685); assay: co-crystal structure, […] Å (crystallized with […] ADP and […] MgCl2); assay type: binding
T2 construct: gene VIP1; residues 186–522

[3] = molecular target: T3, ScVip1 kinase-phosphatase tandem domains (ScVip1^KD-PD) (Saccharomyces cerevisiae, UniProt Q06685); assay: HDX-MS, […] molar excess
T3 construct: gene VIP1
T3 sequence (Q06685 186-1107): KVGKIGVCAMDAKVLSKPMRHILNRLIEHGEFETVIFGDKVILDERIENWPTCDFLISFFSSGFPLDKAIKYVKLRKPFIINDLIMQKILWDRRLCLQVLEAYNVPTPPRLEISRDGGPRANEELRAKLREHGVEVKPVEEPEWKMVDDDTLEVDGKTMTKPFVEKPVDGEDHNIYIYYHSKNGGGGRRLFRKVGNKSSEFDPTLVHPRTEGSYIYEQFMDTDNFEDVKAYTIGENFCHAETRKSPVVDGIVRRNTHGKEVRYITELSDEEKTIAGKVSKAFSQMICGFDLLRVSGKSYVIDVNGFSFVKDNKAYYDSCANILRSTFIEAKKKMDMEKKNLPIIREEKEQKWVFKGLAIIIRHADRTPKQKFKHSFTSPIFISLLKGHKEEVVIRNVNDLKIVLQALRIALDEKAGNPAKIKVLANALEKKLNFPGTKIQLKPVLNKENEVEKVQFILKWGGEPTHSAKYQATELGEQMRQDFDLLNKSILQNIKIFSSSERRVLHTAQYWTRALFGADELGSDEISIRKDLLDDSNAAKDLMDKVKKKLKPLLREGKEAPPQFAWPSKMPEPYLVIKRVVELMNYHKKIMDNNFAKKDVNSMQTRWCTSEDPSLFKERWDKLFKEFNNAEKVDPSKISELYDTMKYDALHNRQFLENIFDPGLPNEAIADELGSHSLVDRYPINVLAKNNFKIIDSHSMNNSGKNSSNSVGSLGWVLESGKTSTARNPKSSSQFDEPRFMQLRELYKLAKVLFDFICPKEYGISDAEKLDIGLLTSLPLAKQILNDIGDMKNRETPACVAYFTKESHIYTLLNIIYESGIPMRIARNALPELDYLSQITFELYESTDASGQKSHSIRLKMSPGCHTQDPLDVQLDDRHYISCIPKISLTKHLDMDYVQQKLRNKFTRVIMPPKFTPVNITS

[4] = molecular target: T4, ScVip1 phosphatase domain (ScVip1^PD) (Saccharomyces cerevisiae, UniProt Q06685); assay: NMR time course of […],5-InsP8 hydrolysis; assay type: biochemical
T4 construct: gene VIP1; residues 536–1107
T4 sequence (Q06685 536-1107): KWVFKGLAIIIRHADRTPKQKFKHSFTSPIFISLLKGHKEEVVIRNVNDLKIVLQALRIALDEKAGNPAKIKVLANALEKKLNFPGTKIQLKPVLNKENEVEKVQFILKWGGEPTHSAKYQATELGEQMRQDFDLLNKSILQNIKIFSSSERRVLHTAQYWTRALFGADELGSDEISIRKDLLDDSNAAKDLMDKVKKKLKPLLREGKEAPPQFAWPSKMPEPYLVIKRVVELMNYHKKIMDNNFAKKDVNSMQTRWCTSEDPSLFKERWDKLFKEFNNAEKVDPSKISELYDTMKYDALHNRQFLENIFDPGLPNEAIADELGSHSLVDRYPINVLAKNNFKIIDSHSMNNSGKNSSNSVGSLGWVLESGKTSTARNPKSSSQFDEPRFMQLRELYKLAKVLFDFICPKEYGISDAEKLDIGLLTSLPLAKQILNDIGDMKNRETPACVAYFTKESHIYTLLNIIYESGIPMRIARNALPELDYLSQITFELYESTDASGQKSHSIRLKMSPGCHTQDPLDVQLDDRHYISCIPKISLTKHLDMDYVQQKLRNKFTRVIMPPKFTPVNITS

[5] = substrate: O=P(O)(O)O[C@@H]1[C@@H](OP(=O)(O)O)[C@@H](OP(=O)(O)O)[C@@H](OP(=O)(O)OP(=O)(O)O)[C@H](OP(=O)(O)O)[C@H]1OP(=O)(O)O; assay: malachite green and NMR phosphatase assays, Michaelis-Menten KM; assay type: biochemical, Saccharomyces cerevisiae
[6] = substrate: O=P(O)(O)O[C@@H]1[C@@H](OP(=O)(O)O)[C@H](OP(=O)(O)OP(=O)(O)O)[C@@H](OP(=O)(O)O)[C@H](OP(=O)(O)OP(=O)(O)O)[C@@H]1OP(=O)(O)O; assay: as above; assay type: biochemical, Saccharomyces cerevisiae; conditions: phosphatase active site (RHxxR motif) and GAF-domain substrate channel

With `O=P(O)(O)O[C@@H]1[C@@H](OP(=O)(O)O)[C@@H](OP(=O)(O)O)[C@@H](OP(=O)(O)OP(=O)(O)O)[C@H](OP(=O)(O)O)[C@H]1OP(=O)(O)O` [1-InsP7] as the molecule, how does the “NMR and malachite green phosphatase assays” value [1] read?
Its value is “Glu991 to Ala mutant readily accepts 1-InsP7 as a substrate in both NMR and malachite green-based phosphatase assays”.

Which “co-crystal structure, 1.18 Å (crystallized with 5 mM ADP and 20 mM MgCl2)” value [2] does the source give for `Nc1ncnc2c1ncn2[C@@H]1O[C@H](COP(=O)(O)OP(=O)(O)O)[C@@H](O)[C@H]1O` [ADP] here?
The value was “The structure of ScVip1^KD in complex with adenosine diphosphate revealed the typical ATP-grasp fold and substrate binding sites”.

How did the “HDX-MS, 100-fold molar excess” value [3] turn out when `Nc1ncnc2c1ncn2[C@@H]1O[C@H](CO[P@](=O)(O)O[P@](=O)(O)NP(=O)(O)O)[C@@H](O)[C@H]1O` [AMPPNP, AMP-PNP] was run?
The value was “Addition of an ATP substrate analog reveals additional protected regions in the vicinity of the active site of the kinase domain”.

With `O=P(O)(O)O` [inorganic phosphate] as the molecule, how does the “NMR time course of 1,5-InsP8 hydrolysis” value [4] read?
The value was “ScVip1^PD is inhibited by Pi in a concentration-dependent manner, as inferred from NMR-based assays”.

B1: ScVip1 phosphatase domain (ScVip1^PD) (Saccharomyces cerevisiae S288C) (protein)
chain: KWVFKGLAIIIRHADRTPKQKFKHSFTSPIFISLLKGHKEEVVIRNVNDLKIVLQALRIALDEKAGNPAKIKVLANALEKKLNFPGTKIQLKPVLNKENEVEKVQFILKWGGEPTHSAKYQATELGEQMRQDFDLLNKSILQNIKIFSSSERRVLHTAQYWTRALFGADELGSDEISIRKDLLDDSNAAKDLMDKVKKKLKPLLREGKEAPPQFAWPSKMPEPYLVIKRVVELMNYHKKIMDNNFAKKDVNSMQTRWCTSEDPSLFKERWDKLFKEFNNAEKVDPSKISELYDTMKYDALHNRQFLENIFDPGLPNEAIADELGSHSLVDRYPINVLAKNNFKIIDSHSMNNSGKNSSNSVGSLGWVLESGKTSTARNPKSSSQFDEPRFMQLRELYKLAKVLFDFICPKEYGISDAEKLDIGLLTSLPLAKQILNDIGDMKNRETPACVAYFTKESHIYTLLNIIYESGIPMRIARNALPELDYLSQITFELYESTDASGQKSHSIRLKMSPGCHTQDPLDVQLDDRHYISCIPKISLTKHLDMDYVQQKLRNKFTRVIMPPKFTPVNITS
notes: residues 536–1107
For B1, which Km [5] is on record?
Its Km is 70 µM.

And the Km [6]?
The Km was 45 µM.
